Tests used:
hIL-6 mRNA = assay: Quantification of hIL-6 mRNA; type: cell-based, human; parameters: key: Active: an active compound is one that causes a ≥20% inhibition in IL-6 mRNA at a concentration less than or equal to 10 μM; conditions: IL-6 mRNA by real-time PCR; differentiated U937 cells, 1 h pretreatment, lipopolysaccharide stimulation 3 h; concentration ≤10 μM
Summary of the method: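 U937 cells, differentiated for 3 days, were pretreated with compound for 1 h and then stimulated with E. coli LPS for 3 h at 37 °C. IL-6 mRNA was quantified by one-step qRT-PCR, with Ct normalized to an internal control, and fold induction was expressed relative to control.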

VCAM-1 mRNA = assay: Quantification of hVCAM mRNA; type: cell-based, human; parameters: key: Active: an active compound is one that causes a ≥20% inhibition in VCAM-1 mRNA at a concentration less than or equal to 10 μM; -1 mRNA at a concentration less than or equal to 10 μM; conditions: VCAM-1 mRNA by real-time PCR; HUVECs, 1 h pretreatment, tumor necrosis factor-α stimulation 24 h; concentration ≤10 μM
Procedure: In this example, […] in tissue culture cells was quantitated to measure the transcriptional inhibition of hVCAM when treated with a compound of the invention.
Human umbilical vein endothelial cells (HUVECs) were plated in a 96-well plate (4.0×10^3 cells/well) in 100 μL EGM media and incubated for 24 h prior to the addition of the compound of interest. The cells were pretreated for 1 h with the test compound prior to stimulation with tumor necrosis factor-α. The cells were incubated for an additional 24 h before the cells were harvested. At time of harvest, the spent media was removed from the HUVECs and rinsed in 200 μL PBS. Cell lysis solution (70 μL) was then added the cells in each well and incubated for ˜5-10 min at room temperature, to allow for complete cell lysis and detachment. mRNA was then prepared using the “mRNA Catcher PLUS plate” (Invitrogen), according to the protocol supplied. After the last wash, as much wash buffer as possible was aspirated without allowing the wells to dry. Elution buffer (E3, 70 μL) was then added to each well. mRNA was then eluted by incubating the mRNA Catcher PLUS plate with elution buffer for 5 min at 68° C. and then immediately placing the plate on ice.
The eluted mRNA so isolated was then used in a one-step quantitative real-time PCR reaction, using components of the Ultra Sense Kit together with Applied Biosystems primer-probe mixes. Real-time PCR data was analyzed, normalizing the Ct values for hVCAM to an internal control, prior to determining the fold induction of each unknown sample, relative to the control.

melting point [°C]	SMILES	Inhibition of IL-6 expression (hIL-6 mRNA)	Inhibition of VCAM-1 expression (VCAM-1 mRNA)
212.3 to 213.2	Cc1cc(-c2nc3ccc(CCN4CCCC4)cc3c(=O)[nH]2)cc(C)n1 [2-(2,6-Dimethylpyridin-4-yl)-6-(2-(pyrrolidin-1-yl)ethyl)quinazolin-4(3H)-one]	Active	Active
172.3 to 173.2	COc1cc(OCCOc2ccccc2)c2c(=O)[nH]c(-c3cc(C)nc(C)c3)nc2c1 [2-(2,6-Dimethylpyridin-4-yl)-7-methoxy-5-(2-phenoxyethoxy)quinazolin-4(3H)-one]	Active	Active
109 to 111	COc1cc(OC)c2c(=O)n(CCCN3CCCC3)c(-c3cc(C)c(OCCCN4CCCC4)c(C)c3)nc2c1 [2-(3,5-Dimethyl-4-(3-(pyrrolidin-1-yl)propoxy)phenyl)-5,7-dimethoxy-3-(3-(pyrrolidin-1-yl)propyl)quinazolin-4(3H)-one]	Active	
181 to 182	Cc1cc(C)c2c(=O)[nH]c(-c3cc(C)c(OCCN4CCCC4)c(C)c3)nc2c1 [2-(3,5-Dimethyl-4-(2-(pyrrolidin-1-yl)ethoxy)phenyl)-5,7-dimethylquinazolin-4(3H)-one]	Active	
226 to 227	COc1cc(OC)c2c(=O)[nH]c(-c3ccc(OCCN4CCCC4)cc3)nc2c1 [5,7-Dimethoxy-2-(4-(2-(pyrrolidin-1-yl)ethoxy)phenyl)quinazolin-4(3H)-one]	Active	
264 to 265	COc1cc(OCCNC(C)=O)cc(-c2nc3cc(OC)cc(OC)c3c(=O)[nH]2)c1 [N-(2-(3-(5,7-dimethoxy-4-oxo-3,4-dihydroquinazolin-2-yl)-5-methoxyphenoxy)ethyl)acetamide]	Active	Active
106.9 to 109.1	COc1cc(OC)c2c(=O)[nH]c(-c3cc(C)cc(OCCO)c3)nc2c1 [2-(3-(2-Hydroxyethoxy)-5-methylphenyl)-5,7-dimethoxyquinazolin-4(3H)-one]	Active	Active
218 to 219	COc1cc(OC)c2c(=O)[nH]c(-c3cc(C)c(OCCn4ccnc4)c(C)c3)nc2c1 [2-(4-(2-(1H-Imidazol-1-yl)ethoxy)-3,5-dimethylphenyl)-5,7-dimethoxyquinazolin-4(3H)-one]	Active	Active
149.8 to 151.4	COCCOc1cc(OCCOC)c2c(=O)[nH]c(-c3cc(C)nc(C)c3)nc2c1 [2-(2,6-Dimethylpyridin-4-yl)-5,7-bis(2-methoxyethoxy)quinazolin-4(3H)-one]	Active	Active
60.4 to 62.3	COCCOc1cc(OCCN2CCCC2)c2c(=O)[nH]c(-c3cc(C)nc(C)c3)nc2c1 [2-(2,6-Dimethylpyridin-4-yl)-7-(2-methoxyethoxy)-5-(2-(pyrrolidin-1-yl)ethoxy)quinazolin-4(3H)-one]	Active	Active
317 to 318	COc1cc(OC)c2c(=O)[nH]c(-c3ccc(CN4C(=O)CNC4=O)cc3)nc2c1 [3-(4-(5,7-Dimethoxy-4-oxo-3,4-dihydroquinazolin-2-yl)benzyl)imidazolidine-2,4-dione]	Active	Active
284 to 286	COc1cc(OC)c2c(=O)[nH]c(-c3ccc(N4CCC(O)CC4)cc3)nc2n1 [2-(4-(4-Hydroxypiperidin-1-yl)phenyl)-5,7-dimethoxypyrido[2,3-d]pyrimidin-4(3H)-one]	Active	
204 to 205	COc1cc(OC)c2c(=O)[nH]c(-c3cc(C)c(OCCN4CCC4)c(C)c3)nc2c1 [2-(4-(2-(Azetidin-1-yl)ethoxy)-3,5-dimethylphenyl)-5,7-dimethoxyquinazolin-4(3H)-one]	Active	
180 to 182	COc1cc(OC)c2c(=O)[nH]c(-c3cc(C)c(OCCN4CCN(C)CC4)c(C)c3)nc2c1 [2-(3,5-Dimethyl-4-(2-(4-methylpiperazin-1-yl)ethoxy)phenyl)-5,7-dimethoxyquinazolin-4(3H)-one]	Active	Active
291 to 292	COc1cc(OC)c2c(=O)[nH]c(-c3cc(C)nc(C)c3)nc2c1 [2-(2,6-Dimethylpyridin-4-yl)-5,7-dimethoxyquinazolin-4(3H)-one]	Active	
225 to 227	COCCOc1cc(OC)c2c(=O)[nH]c(-c3ccc(N4C[C@@H](C)N(C(C)=O)[C@@H](C)C4)cc3)nc2c1 [2-(4-((3R,5S)-4-Acetyl-3,5-dimethylpiperazin-1-yl)phenyl)-5-methoxy-7-(2-methoxyethoxy)quinazolin-4(3H)-one]	Active	
230 to 231	COc1cc(OC)c2c(=O)[nH]c(-c3ccc(OCCN4CCCC4)c(C)c3)nc2c1 [5,7-Dimethoxy-2-(3-methyl-4-(2-(pyrrolidin-1-yl)ethoxy)phenyl)quinazolin-4(3H)-one]	Active	Active
216 to 217	Cc1cc(-c2nc3c(Cl)cccc3c(=O)[nH]2)cc(C)c1OCCN1CCCC1 [8-Chloro-2-(3,5-dimethyl-4-(2-(pyrrolidin-1-yl)ethoxy)phenyl)quinazolin-4(3H)-one]	Active	
65 to 68	Cc1cc(-c2nc3cc(OC(C)C)cc(OC(C)C)c3c(=O)[nH]2)cc(C)c1OCCN1CCCC1 [2-(3,5-Dimethyl-4-(2-(pyrrolidin-1-yl)ethoxy)phenyl)-5,7-diisopropoxyquinazolin-4(3H)-one]	Active	
228.8 to 230.4	COCCOc1cc(OC)c2c(=O)[nH]c(-c3cc(C)nc(C)c3)nc2c1 [2-(2,6-Dimethylpyridin-4-yl)-5-methoxy-7-(2-methoxyethoxy)quinazolin-4(3H)-one]	Active	
295 to 296	COc1cc(OC)c2c(=O)[nH]c(-c3ccc(Cc4nnn[nH]4)cc3)nc2c1 [2-(4-((1H-Tetrazol-5-yl)methyl)phenyl)-5,7-dimethoxyquinazolin-4(3H)-one]	Active	
111.8 to 113.6	COc1cc(OC)c2c(=O)[nH]c(-c3cc(C)c(OCCN4CC(NC(C)=O)C4)c(C)c3)nc2c1 [N-(1-(2-(4-(5,7-Dimethoxy-4-oxo-3,4-dihydroquinazolin-2-yl)-2,6-dimethylphenoxy)ethyl)azetidin-3-yl)acetamide]	Active	

SMILES	melting point [°C]	Inhibition of IL-6 expression (hIL-6 mRNA)	Inhibition of VCAM-1 expression (VCAM-1 mRNA)
COc1cc(OC)c2c(=O)[nH]c(-c3cc(C)c(OCCCCN4CCCC4)c(C)c3)nc2c1 [2-(3,5-Dimethyl-4-(4-(pyrrolidin-1-yl)butoxy)phenyl)-5,7-dimethoxyquinazolin-4(3H)-one]	180 to 181	Active	Active

From patent US11407719B2, “Anti-inflammatory agents” (Resverlogix Corp., priority 2009, dated 2022)
